Test results: the supplement of paper PMC11986102
± gives the standard deviation of the averaged measurements.

How the values were obtained:
Assay in all cases: OD600 after 10 h growth (baseline-subtracted); higher = more bacterial growth (less inhibition)
[1] = tested on: Escherichia coli CFT073 (UPEC)
Method: (§1)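 Broth microdilution growth assay in Mueller Hinton broth, 100 µL in 96-well plates, inoculated 1:200 from OD600 0.1 overnight cultures by pinning, 37 °C with shaking at 800 rpm, 1:2 serial dilutions from 128 µg/mL (64 µg/mL for Ebastine). The read-out is OD600 after 10 h; curves were baseline-corrected by subtracting the minimum of the 2nd-4th measurements. Three biological replicates, with water and DMSO no-compound controls.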

[2] = tested on: Escherichia coli IAI1
Method: as §1

[3] = tested on: Klebsiella pneumoniae MKP103
Method: as §1

[4] = tested on: Pseudomonas aeruginosa PA14
Method: as §1

[5] = tested on: Staphylococcus aureus Newman
Method: as §1

CC(=O)N[C@H](Cc1ccc2ccccc2c1)C(=O)N[C@H](Cc1ccc(Cl)cc1)C(=O)N[C@H](Cc1cccnc1)C(=O)N[C@@H](CO)C(=O)N[C@@H](Cc1ccc(O)cc1)C(=O)N[C@H](CCCNC(N)=O)C(=O)N[C@@H](CC(C)C)C(=O)N[C@@H](CCCNC(=N)N)C(=O)N1CCC[C@H]1C(=O)N[C@H](C)C(N)=O [Cetrorelix]
OD600 after 10 h growth
Conditions	[1]	[2]	[3]	[4]	[5]
0.1 µg/mL	0.804 ± 0.06	0.865 ± 0.097	0.674 ± 0.058	0.741 ± 0.023	1.08 ± 0.021
0.2 µg/mL	0.832 ± 0.022	0.872 ± 0.092	0.679 ± 0.056	0.742 ± 0.022	1.08 ± 0.061
0.5 µg/mL	0.8273 ± 0.0061	0.829 ± 0.025	0.687 ± 0.05	0.742 ± 0.023	1.08 ± 0.021
1 µg/mL	0.812 ± 0.024	0.828 ± 0.021	0.693 ± 0.032	0.727 ± 0.0098	1.1 ± 0.013
2 µg/mL	0.827 ± 0.019	0.831 ± 0.025	0.702 ± 0.025	0.726 ± 0.015	1.1 ± 0.021
4 µg/mL	0.83 ± 0.013	0.821 ± 0.031	0.701 ± 0.019	0.736 ± 0.038	1.11 ± 0.016
8 µg/mL	0.806 ± 0.042	0.831 ± 0.04	0.707 ± 0.017	0.736 ± 0.037	1.11 ± 0.015
16 µg/mL	0.81 ± 0.052	0.837 ± 0.038	0.712 ± 0.014	0.754 ± 0.031	1.117 ± 0.0017
32 µg/mL	0.792 ± 0.081	0.814 ± 0.035	0.717 ± 0.023	0.763 ± 0.03	1.117 ± 0.0067
64 µg/mL	0.807 ± 0.069	0.8 ± 0.03	0.69 ± 0.028	0.749 ± 0.025	1.09 ± 0.021
128 µg/mL	0.77 ± 0.06	0.786 ± 0.053	0.679 ± 0.025	0.756 ± 0.026	1.05 ± 0.019

CC(C)(C)c1ccc(C(=O)CCCN2CCC(OC(c3ccccc3)c3ccccc3)CC2)cc1 [Ebastine]
OD600 after 10 h growth
Conditions	[1]	[2]	[3]	[4]	[5]
0.05 µg/mL	0.78 ± 0.064	0.808 ± 0.037	0.665 ± 0.068	0.75 ± 0.035	1.11 ± 0.022
0.1 µg/mL	0.781 ± 0.064	0.807 ± 0.039	0.667 ± 0.063	0.752 ± 0.043	1.08 ± 0.04
0.2 µg/mL	0.783 ± 0.061	0.796 ± 0.045	0.666 ± 0.067	0.742 ± 0.044	1.14 ± 0.14
0.5 µg/mL	0.789 ± 0.061	0.793 ± 0.061	0.666 ± 0.059	0.744 ± 0.037	1.06 ± 0.036
1 µg/mL	0.798 ± 0.057	0.812 ± 0.041	0.671 ± 0.073	0.754 ± 0.03	1.15 ± 0.17
2 µg/mL	0.792 ± 0.047	0.816 ± 0.041	0.681 ± 0.074	0.842 ± 0.13	1.1 ± 0.092
4 µg/mL	0.797 ± 0.038	0.808 ± 0.041	0.787 ± 0.13	0.749 ± 0.035	1.05 ± 0.039
8 µg/mL	0.803 ± 0.047	0.81 ± 0.045	0.678 ± 0.081	0.743 ± 0.032	1.03 ± 0.046
16 µg/mL	0.792 ± 0.029	0.848 ± 0.13	0.661 ± 0.068	0.725 ± 0.03	0.987 ± 0.02
32 µg/mL	0.775 ± 0.026	0.778 ± 0.036	0.647 ± 0.045	0.697 ± 0.033	0.991 ± 0.027
64 µg/mL	0.755 ± 0.018	0.754 ± 0.037	0.613 ± 0.021	0.603 ± 0.03	1.02 ± 0.031

COc1cc2c(cc1Cc1cccc(Cl)c1F)c(=O)c(C(=O)O)cn2[C@H](CO)C(C)C [Elvitegravir]
OD600 after 10 h growth
Conditions	[1]	[2]	[3]	[4]	[5]
0.1 µg/mL	0.782 ± 0.064	0.803 ± 0.042	0.671 ± 0.066	0.752 ± 0.043	1.07 ± 0.025
0.2 µg/mL	0.768 ± 0.052	0.846 ± 0.12	0.666 ± 0.062	0.747 ± 0.042	1.07 ± 0.038
0.5 µg/mL	0.793 ± 0.026	0.816 ± 0.028	0.672 ± 0.062	0.751 ± 0.043	1.08 ± 0.044
1 µg/mL	0.81 ± 0.013	0.808 ± 0.028	0.664 ± 0.057	0.748 ± 0.037	1.08 ± 0.041
2 µg/mL	0.812 ± 0.0066	0.82 ± 0.027	0.671 ± 0.056	0.761 ± 0.043	1.08 ± 0.045
4 µg/mL	0.804 ± 0.025	0.818 ± 0.035	0.675 ± 0.059	0.756 ± 0.035	0.309 ± 0.27
8 µg/mL	0.793 ± 0.042	0.834 ± 0.04	0.681 ± 0.051	0.758 ± 0.034	0.0327 ± 0.018
16 µg/mL	0.807 ± 0.02	0.836 ± 0.037	0.675 ± 0.047	0.743 ± 0.035	0.0197 ± 0.014
32 µg/mL	0.806 ± 0.022	0.812 ± 0.035	0.651 ± 0.056	0.689 ± 0.049	0.00533 ± 0.0055
64 µg/mL	0.766 ± 0.013	0.784 ± 0.039	0.625 ± 0.056	0.661 ± 0.048	0
128 µg/mL	0.733 ± 0.014	0.771 ± 0.058	0.596 ± 0.021	0.588 ± 0.054	0.013 ± 0.011
